System: adult patients diagnosed with MDD
Experiment: Eight-week randomized, double-blind, placebo-controlled study: association of sequenced gene markers (Tables 1-17) with vilazodone response as change of MADRS
Assay type: in vivo, human
Details: mean MADRS decrease
Excerpt: There was a wide range of inter-individual variability in response to vilazodone as well as to placebo and the active comparators. This variability may be partially due to genetic differences among the individuals treated. This example illustrates a randomized, double-blind, placebo-controlled, multicenter, eight-week study designed to discover genetic markers of response to vilazodone in adult patients diagnosed with MDD by the DSM-IV-TR criteria. Patients must have met all of the following inclusion criteria to be considered for enrollment in the study: (1) 18-65 years of age; (2) diagnosis of MDD, single episode or recurrent, according to DSM-IV-TR (296.2/296.3) with a current Major Depressive Episode of less than one year's duration with a minimum duration of at least 4 weeks; (3) HAM-D score≧22 on the first 17 items of the 21-item HAM-D at screening and baseline visits; (4) HAM-D item 1 (depressed mood) score≧2 at the screening visit and the baseline visit; (5) provision of written informed consent to participate; and (6) ability to speak, read and understand English and to respond to questions and follow simple instructions.
Following randomization into vilazodone and placebo groups, patients began the forced titration schedule. Patients received 10 mg qd until Visit 3 (approximately Day 7). At Visit 3 patients received 20 mg qd until Visit 4 (approximately Day 14). At Visit 4 patients received the target dose of 40 mg qd (approximately Day 15). A total of 152 patients completed the vilazodone arm, while 154 patients completed the placebo arm.
This example illustrates genotyping of the study group for the ACE, ATP5C3, BCL2L1, CYP2C9, DRD3, FOS, DTNBP1, GABRG3, GRIA4, LAMA4, MAPK1, NPY1R, OPRD1, OPRM1, PER3, PLCB1, and PSMD1 polymorphic sites selected by the inventors herein for analysis. Genomic DNA was isolated from blood obtained from each individual and amplified target regions containing the polymorphic sites in Tables A-21 to A-37 (Appendix A) were sequenced to determine the genotypes at these polymorphic sites. Tailed (Universal M13 Forward and Reverse) PCR primers were designed using the sequence of SEQ ID NO:1 for ACE, SEQ ID NO:2 for ATP5C3, SEQ ID NO:3 for BCL2L1, SEQ ID NO:4 for CYP2C9, SEQ ID NO:5 for DRD3, SEQ ID NO:6 for FOS, SEQ ID NO:7 for DTNBP1, SEQ ID NO:8 for GABRG3, SEQ ID NO:9 for GRIA4, SEQ ID NO:10 for LAMA4, SEQ ID NO:11 for MAPK1, SEQ ID NO:12 for NPY1R, SEQ ID NO:13 for OPRD1, SEQ ID NO:14 for OPRM1, SEQ ID NO:15 for PER3, SEQ ID NO:16 for PLCB1, and SEQ ID NO:17 for PSMD1. Amplified PCR products were sequenced using Applied Biosystems' Big Dye® Terminator v 3.1 cycle sequencing kit according to manufacturer's instructions. The reaction products were then electrophoresed using an Applied Biosystems 3700 or 3730xl DNA analyzer. Polymorphisms were identified using the Polyphred program, and confirmed by visual inspection.
Haplotypes were estimated from the unphased genotypes using a computer-implemented algorithm for assigning haplotypes to unrelated individuals in a population sample, essentially as described in WO 01/80156. In this method, haplotypes are assigned directly from individuals who are homozygous at all sites or heterozygous at no more than one of the variable sites. This list of haplotypes is then used to deconvolute the unphased genotypes in the remaining (multiply heterozygous) individuals.
This example illustrates analysis of the markers in Tables A-1 to A-17 (Appendix A) for association with vilazodone response. A proprietary algorithm was used as a tool for finding associations between markers and outcomes. The clinical outcomes were improvement in disease over eight weeks of treatment with vilazodone as measured by the MADRS scale. A linear model was first fitted on the covariates, which were treatment center, race, ethnicity, and baseline values. […]

[1] = PLCB1 marker 1, carriers vs non-carriers
[2] = PLCB1 marker 2, carriers vs non-carriers
[3] = PLCB1 marker 3, carriers vs non-carriers
[4] = PLCB1 marker 4, carriers vs non-carriers
[5] = PLCB1 marker 5, carriers vs non-carriers
[6] = PLCB1 marker 6, carriers vs non-carriers
[7] = PLCB1 marker 7, carriers vs non-carriers
[8] = PLCB1 marker 8, carriers vs non-carriers
[9] = PLCB1 marker 9, carriers vs non-carriers
[10] = PLCB1 marker 10, carriers vs non-carriers
[11] = PLCB1 marker 11, carriers vs non-carriers
[12] = PLCB1 marker 12, carriers vs non-carriers
[13] = PLCB1 marker 13, carriers vs non-carriers
[14] = PLCB1 marker 17, carriers vs non-carriers
[15] = PLCB1 marker 18, carriers vs non-carriers
[16] = PLCB1 marker 19, carriers vs non-carriers
[17] = PLCB1 marker 20, carriers vs non-carriers
[18] = PLCB1 marker 21, carriers vs non-carriers
[19] = PLCB1 marker 22, carriers vs non-carriers
[20] = PLCB1 marker 23, carriers vs non-carriers
[21] = PLCB1 marker 24, carriers vs non-carriers
[22] = PLCB1 marker 25, carriers vs non-carriers
[23] = PLCB1 marker 26, carriers vs non-carriers
[24] = PLCB1 marker 27, carriers vs non-carriers
[25] = PLCB1 marker 28, carriers vs non-carriers
[26] = PLCB1 marker 29, carriers vs non-carriers
[27] = PLCB1 marker 30, carriers vs non-carriers
[28] = PLCB1 marker 31, carriers vs non-carriers
[29] = PLCB1 marker 32, carriers vs non-carriers
[30] = PLCB1 marker 33, carriers vs non-carriers
[31] = PLCB1 marker 34, carriers vs non-carriers
[32] = PLCB1 marker 35, carriers vs non-carriers
[33] = PLCB1 marker 36, carriers vs non-carriers
[34] = PLCB1 marker 37, carriers vs non-carriers
[35] = PLCB1 marker 38, carriers vs non-carriers
[36] = PLCB1 marker 39, carriers vs non-carriers
[37] = PLCB1 marker 40, carriers vs non-carriers
[38] = PLCB1 marker 41, carriers vs non-carriers
[39] = PLCB1 marker 42, carriers vs non-carriers
[40] = PLCB1 marker 43, carriers vs non-carriers
[41] = PLCB1 marker 44, carriers vs non-carriers
[42] = PLCB1 marker 45, carriers vs non-carriers
[43] = PLCB1 marker 46, carriers vs non-carriers
[44] = PLCB1 marker 47, carriers vs non-carriers
[45] = PLCB1 marker 48, carriers vs non-carriers
[46] = PLCB1 marker 49, carriers vs non-carriers
[47] = PLCB1 marker 50, carriers vs non-carriers
[48] = PLCB1 marker 51, carriers vs non-carriers
[49] = PLCB1 marker 52, carriers vs non-carriers
[50] = PLCB1 marker 53, carriers vs non-carriers

Cl.N#Cc1ccc2[nH]cc(CCCCN3CCN(c4ccc5oc(C(N)=O)cc5c4)CC3)c2c1 [Vilazodone, 5-{4-[4-(5-Cyano-3-indolyl)-butyl]-1-piperazinyl}-benzofuran-2-carboxamide hydrochloride]
Response difference (Cauc. only) [1]: −6.1
Response difference (all ethnic.) [1]: −4.8
Response difference (Cauc. only) [2]: −6.2
Response difference (all ethnic.) [2]: −4.8
Response difference (Cauc. only) [3]: −6.5
Response difference (all ethnic.) [3]: −5.1
Response difference (Cauc. only) [4]: −6.6
Response difference (all ethnic.) [4]: −5.1
Response difference (Cauc. only) [5]: −5.9
Response difference (all ethnic.) [5]: −4.3
Response difference (Cauc. only) [6]: −6
Response difference (all ethnic.) [6]: −4.3
Response difference (Cauc. only) [7]: −5.4
Response difference (all ethnic.) [7]: −3.9
Response difference (Cauc. only) [8]: −6
Response difference (all ethnic.) [8]: −4.3
Response difference (Cauc. only) [9]: −6.4
Response difference (all ethnic.) [9]: −5.1
Response difference (Cauc. only) [10]: −5.8
Response difference (all ethnic.) [10]: −4.6
Response difference (Cauc. only) [11]: −6.4
Response difference (all ethnic.) [11]: −5.2
Response difference (Cauc. only) [12]: −7
Response difference (all ethnic.) [12]: −5.6
Response difference (Cauc. only) [13]: −6.2
Response difference (all ethnic.) [13]: −4.9
Response difference (Cauc. only) [14]: −6
Response difference (all ethnic.) [14]: −4.7
Response difference (Cauc. only) [15]: −6
Response difference (all ethnic.) [15]: −4.7
Response difference (Cauc. only) [16]: −6.6
Response difference (all ethnic.) [16]: −4.6
Response difference (Cauc. only) [17]: −6.7
Response difference (all ethnic.) [17]: −4.7
Response difference (Cauc. only) [18]: −5.9
Response difference (all ethnic.) [18]: −4.2
Response difference (Cauc. only) [19]: −6.7
Response difference (all ethnic.) [19]: −4.7
Response difference (Cauc. only) [20]: −6.1
Response difference (all ethnic.) [20]: −4.8
Response difference (Cauc. only) [21]: −6.2
Response difference (all ethnic.) [21]: −4.8
Response difference (Cauc. only) [22]: −6.5
Response difference (all ethnic.) [22]: −5.1
Response difference (Cauc. only) [23]: −6.5
Response difference (all ethnic.) [23]: −5.1
Response difference (Cauc. only) [24]: −6.5
Response difference (all ethnic.) [24]: −5.1
Response difference (Cauc. only) [25]: −6.5
Response difference (all ethnic.) [25]: −5.1
Response difference (Cauc. only) [26]: −6.5
Response difference (all ethnic.) [26]: −5.1
Response difference (Cauc. only) [27]: −6.5
Response difference (all ethnic.) [27]: −5.1
Response difference (Cauc. only) [28]: −6.5
Response difference (all ethnic.) [28]: −5.1
Response difference (Cauc. only) [29]: −6.5
Response difference (all ethnic.) [29]: −5.1
Response difference (Cauc. only) [30]: −6.5
Response difference (all ethnic.) [30]: −5.1
Response difference (Cauc. only) [31]: −6.5
Response difference (all ethnic.) [31]: −5.1
Response difference (Cauc. only) [32]: −6.5
Response difference (all ethnic.) [32]: −5.1
Response difference (Cauc. only) [33]: −6.5
Response difference (all ethnic.) [33]: −5.1
Response difference (Cauc. only) [34]: −6.5
Response difference (all ethnic.) [34]: −5.1
Response difference (Cauc. only) [35]: −6.5
Response difference (all ethnic.) [35]: −5.1
Response difference (Cauc. only) [36]: −6.5
Response difference (all ethnic.) [36]: −5.1
Response difference (Cauc. only) [37]: −6.6
Response difference (all ethnic.) [37]: −5.1
Response difference (Cauc. only) [38]: −6.6
Response difference (all ethnic.) [38]: −5.1
Response difference (Cauc. only) [39]: −6.6
Response difference (all ethnic.) [39]: −5.1
Response difference (Cauc. only) [40]: −6.6
Response difference (all ethnic.) [40]: −5.1
Response difference (Cauc. only) [41]: −6.6
Response difference (all ethnic.) [41]: −5.1
Response difference (Cauc. only) [42]: −6.6
Response difference (all ethnic.) [42]: −5.1
Response difference (Cauc. only) [43]: −6.6
Response difference (all ethnic.) [43]: −5.1
Response difference (Cauc. only) [44]: −6.6
Response difference (all ethnic.) [44]: −5.1
Response difference (Cauc. only) [45]: −6.6
Response difference (all ethnic.) [45]: −5.1
Response difference (Cauc. only) [46]: −6.6
Response difference (all ethnic.) [46]: −5.1
Response difference (Cauc. only) [47]: −6.6
Response difference (all ethnic.) [47]: −5.1
Response difference (Cauc. only) [48]: −6.6
Response difference (all ethnic.) [48]: −5.1
Response difference (Cauc. only) [49]: −6.6
Response difference (all ethnic.) [49]: −5.1
Response difference (Cauc. only) [50]: −6.6
Response difference (all ethnic.) [50]: −5.1
